Earlier results, collected in patent US20040186131A1, “Method of preventing or treating atherosclerosis or restenosis” (priority 2002, published 2004).

System: CMV infection of rats
Conditions: DHPG prophylaxis

**Q.** With `Nc1nc(O)c2ncn(COC(CO)CO)c2n1` [Ganciclovir] as the compound, how does the “prevention of atherosclerosis resulting from CMV infection” value read?
**A.** prevent atherosclerosis
